Data set [1] in a line: Solubilization of actives in 3 wt-% polymer solution (high-throughput, UV/VIS). Type of data set: physicochemical. On the procedure: Solubilization measurements were carried out with a highthroughput screening robot. This set up dosed 10 mg solid active and […] of the respective 3 wt-% liquid polymer solution (in CIPAC water D) into wells on a micro titer plate. After the addition of stirring bars and 24 hours incubation time the samples were filtrated via polypropylene filters in order to separate dissolved active and its solid form ated. The amount of solubilized active was determined via UV/VIS spectroscopy.

For data set [2] the following is noted: at 20° C.; cited from earlier work.
Setting [3] is: 10 mg solid active, without polymer or in 3 wt-% polymer solution in CIPAC water D, 24 hours.

Converted amounts (≈) assume the structure as drawn.

For `CC(O)(Cn1cncn1)c1ccc(Oc2ccc(Cl)cc2)cc1C(F)(F)F` (centres unmarked) [BAS 750 F, 2-[4-(4-chlorophenoxy)-2-(trifluoromethyl)phenyl]-1-(1H-1,2,4-triazol-1-yl)propan-2-ol], the “Solubility of BAS 750 F” value in data set [1] (setting [3]) came out at 15 pmm.

For `N#Cc1nn(-c2c(Cl)cc(C(F)(F)F)cc2Cl)c(N)c1[S+]([O-])C(F)(F)F` (centres unmarked) [Fipronil, fipronil], in data set [1], the Solubility of fipronil was 12 pmm.

Consider `NC(=O)N1c2ccccc2C=Cc2ccccc21` [carbamazepine], for which the Solubility of carbamazepine in data set [1] (setting [3]) is given as 181 pmm.

In data set [1] (10 mg solid active, alone or in 3 wt-% polymer solution in CIPAC water D, 24 hours), `Cn1cc(C(=O)Nc2ccccc2-c2cc(F)c(F)c(F)c2)c(C(F)F)n1` [fluxapyroxad] showed a Solubility of fluxapyroxad of 10 pmm. For the same molecule, the water solubility in data set [2] is 4 µg/mL (≈ 10.5 µM).

The values above are taken from US10196482B2, “Mixed alkyl terminated polyether dendrons” (BASF SE, priority 2014, dated 2019).
